In US7537786B2, “Complex of drug-carbon nanohorn and a process for producing the complex” (NEC Corporation, priority 2005, dated 2009):

How the values were obtained:
NCI-H460 cells = assay: WST-1 assay for cancer cell viability; format: cell-based, human; conditions: WST-1, incubation 46 and 72 hours
Experimental: The effect of CDDP released from CNHox was examined using the WST-1 assay. The CDDP-CNHox powder was added to human derived lung cancer cells NCI-H460. CDDP is a drug which has a effect on human lung cancer. These cells were maintained in RPMI-1640 medium containing 5% FBS at 37° C. in a humidified atmosphere with CO2 and air. For these cells, CDDP-CNHox or CDDP or CNHox was added respectively, and after the addition, each sample was examined. NCI-H460 cells were seeded at 4,000 cells/well and were cultured for 43 hours. Meanwhile, the cells were cultured for 67 hours when seeded at 2,500 cells/well (no addition of CDDP-CNHox or CDDP). And then it was confirmed that the NCI-H460 cells were extinct by drug addition. The amount of the extinct NCI-H460 cells was estimated by observing the decrease in the emission intensity to indicate the absorbency of formazan (with blue dye) showing the living of cells. And also, the NCI-H460 cells were directly observed using the optical microscope.

MC3T3-E1 cells = assay: ALP (alkaline phosphatase) activity assay; format: cell-based, mouse; conditions: MC3T3-E1, 10 days, differentiation-inducing medium with rhBMP-4
Experimental: Mouse osteoblastic cell (MC3T3-E1) lines were generously provided by Dr. Imamura (Cancer Institute, Japanese Foundation For Cancer Research). MC3T3-E1 cells were maintained in α-minimum essential medium (α-MEM) supplied with 5% FBS, […] in continuous culture at 37° C. in a humidified atmosphere of 5% CO2 and 95% air, and these cells were passaged every 3-4 days.
MC3T3-E1 cells were plated at 26,000 cells/cm^2 in 24 well plates and were grown until confluent. Next, the culture medium was exchanged with differentiation-inducing medium which consisted of α-MEM, 5% FBS, 100 U/ml penicillin, 100 μg/ml streptomycin, 50 μM ascorbic acid, 10 mM β-glycerophosphate and 20 ng/ml rhBMP-4. […]
For ALP activity assay, the medium was removed, and the cells were washed 3 times with TBS (20 mM Tris pH7.4, 150 mM NaCl), then harvested into 250 μl of TBS (contaning 0.2% Triton X-100) by scraping them on ice, and sonicated on ice for 5 min. […] The supernatant was mixed with p-nitro phosphate according to the manufacture's protocol, and the amount of p-nitrophenol released in 10 min was assessed by spectrophotometry (405 nm) with model 550 microplate-reader (Bio-Rad). Protein concentration of supernatant was assessed with protein quantitative assay kit (DC Protein Assay Kit) by the Lowry method. […]

SMILES | viability rate of NCI-H460 cells (NCI-H460 cells) | concentration at which ALP activity was increased (MC3T3-E1 cells)
[NH2][Pt]([NH2])([Cl])[Cl] [CDDP, cisplatin] | decreased dose-dependently | 
C[C@@H]1C[C@H]2[C@@H]3CCC4=CC(=O)C=C[C@]4(C)[C@@]3(F)[C@@H](O)C[C@]2(C)[C@@]1(O)C(=O)CO [DEX, Dexamethasone] |  | no less than 0.05 μM
